In patent US6528675B1, “Cyanohydrin ethers and esters as high-sensitivity enzyme substrates” (The Regents of the University of California, priority 2001, dated 2003):

Key:
[1] = Substrate stability in buffer, UV detection; assay type: physicochemical; conditions: 10 μM substrate, no enzyme, 5-minute reading
Protocol: (§1) The same two invention substrates and two prior art substrates were tested for stability by both UV detection and fluorescence detection under typical assay conditions.
(§2) Tris maleate buffers (0.1 M) at pH ranging from 6.0 to 9.0 in intervals of 1.0 were used, and substrate was added to 10 μM final concentration. […] The fluorescence samples were read with excitation at 360 nm and emission at 460 nm (for pH 6.0), 465 nm (for pH 7.0), 485 nm (pH 8.0), and 510 nm (pH 9.0) for the methylumbelyl acetate, and with excitation at 330 nm and emission at 460 nm for the two test compounds, in all cases, the readings over 5-minute periods.

[2] = Substrate stability in buffer, fluorescence detection; assay type: physicochemical; conditions: 10 μM substrate, no enzyme, 5-minute reading
Protocol: as §1, §2

[3] = system: homogenate of Heliothis virescens, pyrethroid-susceptible strain; assay: Specific activity of esterase against substrates; assay type: biochemical; conditions: H. virescens (susceptible), pH 8.0, 10 μM substrate, fluorescence 330/460 nm
Protocol: (§3) The esterases were porcine esterase purchased from Sigma Chemical Company, St. Louis, Mo., USA, esterase from a rat liver microsomal preparation from 8-week-old Fisher 344 rats, and homogenates of Heliothis virescens from both pyrethroid-susceptible and -resistant strains of tobacco budworm. The substrate in each case was added to a tris-maleate buffer (pH 8.0, 0.1 m) to a final substrate concentration of 10 μM, followed by the addition of the enzyme preparation. The samples were then immediately read by fluorometer at 460 nm for one minute (excitation at 330 nm). The results are listed in Table VI, where “Compound I” denotes the Example 1 substrate, and “Compound II” denotes the Example 4 substrate.

[4] = system: homogenate of Heliothis virescens, pyrethroid-resistant strain; assay: Specific activity of esterase against substrates; assay type: biochemical; conditions: H. virescens (resistant), pH 8.0, 10 μM substrate, fluorescence 330/460 nm
Protocol: as §3

porcine esterase [5] = assay: Specific activity of esterase against substrates; assay type: biochemical; conditions: pH 8.0, 10 μM substrate, fluorescence 330/460 nm
Protocol: as §3

cytochrome P450 = assay: Substrate response to P450 enzyme activity, rat microsomal enzyme preparation; assay type: biochemical, rats; conditions: pH 7.6, 37° C., substrate 10 mM final concentration, average of three tests
Source text: This example compares four cytochrome P450 substrates within the scope of this invention with two cytochrome P450 substrates that are outside the scope of this invention. The four invention substrates were methoxynaphthalen-2-yl acetonitrile (whose synthesis is shown in Example 8 above and which is designated below as Compound III), ethoxynaphthalen-2-yl acetonitrile (synthesis shown in Example 9, Compound IV), benzoxynaphthalen-2-yl acetonitrile (synthesis shown in Example 10, Compound V), and pentoxynaphthalen-2-yl acetonitrile (synthesis shown in Example 11, Compound VI). The substrates outside the scope of the invention were ethoxyresorufin (designated below as Compound A) and pentoxyresorufin (designated below as Compound B). The structures of these last two substrates are as follows: [drawing 56]
All substrates were tested against a microsomal enzyme preparation from 8-week-old Fisher […] rats, by first combining 890 mL of the preparation with 2 mL of phosphate buffer (pH 7.6, 0.2 M) and incubating the mixture at 37° C. for 5 minutes. The substrate (10 mL) was then added (10 mM final concentration), followed by an appropriate signal generating system (100 mL). The samples were immediately read by fluorometer at 460 nm for 1 minute with excitation at 330 nm. The results in terms of specific activity, both with and without the enzyme system, are shown in Table VII, in which each entry represents an average of three tests.

[6] = system: esterase from a rat liver microsomal preparation; assay: Specific activity of esterase against substrates; assay type: biochemical, Fisher 344 rats; conditions: Rat liver microsome, pH 8.0, 10 μM substrate, fluorescence 330/460 nm
Protocol: as §3

[7] = Change in optical properties, UV absorption of esters and hydrolysis products; assay type: physicochemical; conditions: for ε (molar absorptivity): in M-1 cm-1 (unit assumed)
Source text: The substrates representing the invention were (R/S)-acetic acid cyano-(6-methoxynaphthalen-2-yl)-methyl ester (the title compound of Synthesis Example 1 above) and (trans/cis)-3-(2,2-dichlorovinyl)-2,2-dimethylcyclopropanecarboxylic acid cyano-(6-methoxynaphthalen-2-yl)-methyl ester (the title compound of Synthesis Example 2 above).

porcine esterase [8] = assay: Sensitivity of substrate to enzyme strength; assay type: biochemical; conditions: pH 8.0, 10 μM substrate, 1 unit=1 μmol/min/mL
Protocol: This example illustrates the sensitivity of the substrate to the enzyme, and compares a substrate in accordance with the present invention to two prior art substrates. […] The enzyme was porcine esterase.
A tris-maleate buffer at pH 8.0 (0.1 M) was used. The procedure consisted of adding substrate to a test tube containing 3 mL of buffer to a final substrate concentration of 10 μM, then adding porcine esterase at strengths of 0.06, 0.09. 0.12, 0.18, 0.30, 0.60, 0.9 and 1.2 unit, in which 1 unit=1 μmol/min/mL. […] The enzyme sensitivities for each substrate and detection method were defined as the minimal amount of enzyme per mL required to produce a signal from the substrate that was at least three times greater than the background noise.

[9] = Change in optical properties, fluorescence of esters and hydrolysis products; assay type: physicochemical
Source text: The substrates representing the invention were (R/S)-acetic acid cyano-(6-methoxynaphthalen-2-yl)-methyl ester (the title compound of Synthesis Example 1 above) and (trans/cis)-3-(2,2-dichlorovinyl)-2,2-dimethylcyclopropanecarboxylic acid cyano-(6-methoxynaphthalen-2-yl)-methyl ester (the title compound of Synthesis Example 2 above). The substrates of the prior art were methylumbelyl acetate (for detection by fluorescence emission) and 2-naphthacetate (for detection by UV absorption) in assay solutions with different pH values. These prior art substrates were selected because both are widely used and both have aromatic systems similar to the two test compounds.
Again using tris-maleate at pH levels of 6.5, 7.5, and 8.5, fluorescence studies were performed at concentrations of 10 μM, and fluorescence of the starting esters and the hydrolysis products (hydroxycoumarin in the case of methylumbelyl acetate and 6-methoxy-naphthaldehyde in the case of the Example 1 substrate) were determined by conventional instrumentation. The results are listed in Table III in which “MUA” denotes methylumbelyl acetate, “Compound I” denotes the Example 1 substrate, “Ex” denotes the optimal excitation wavelength in nm, “Emmax” denotes the maximal emission wavelength in nm, and “RFU” denotes the relative fluorescence units multiplied by 1,000.

N#CC(OCc1ccccc1)c1ccc2ccccc2c1 (centres unmarked)
melting point: 36 to 37 °C

CCC1OC1CC(=O)OC(C#N)c1ccc2ccccc2c1 (centres unmarked)
melting point: 60 to 61 °C

N#CC(OC(=O)C/C=C/c1ccccc1)c1ccc2ccccc2c1 (centres unmarked)
melting point: 74 to 75 °C

COc1ccc2cc(C(C#N)OC(=O)C3C(C=C(Cl)Cl)C3(C)C)ccc2c1 (mixture of isomers) [Compound II, (trans/cis)-3-(2,2-Dichlorovinyl)-2,2-dimethylcyclopropanecarboxylic Acid Cyano-(6-methoxynaphthalen-2-yl) Methyl Ester]
Substrate stability, UV Absorption ([1]; pH 6, tris maleate 0.1 M): <0.01 mAbs/min
Substrate stability, UV Absorption ([1]; pH 7, tris maleate 0.1 M): <0.01 mAbs/min
Substrate stability, UV Absorption ([1]; pH 8, tris maleate 0.1 M): <0.01 mAbs/min
Substrate stability, UV Absorption ([1]; pH 9, tris maleate 0.1 M): 0.05 mAbs/min
Substrate stability, Fluorescence ([2]; pH 6, tris maleate 0.1 M): <1 pmol/min
Substrate stability, Fluorescence ([2]; pH 7, tris maleate 0.1 M): <1 pmol/min
Substrate stability, Fluorescence ([2]; pH 8, tris maleate 0.1 M): <1 pmol/min
Substrate stability, Fluorescence ([2]; pH 9, tris maleate 0.1 M): 10 pmol/min
Specific Activity [3]: 150 ± 9 pmol/min/mg protein
Specific Activity [4]: 840 ± 22 pmol/min/mg protein
Specific Activity (porcine esterase [5]): 142,000 ± 520 pmol/min/mg protein
Specific Activity, With Enzyme System (cytochrome P450): 102.4 ± 7.5 pmol/min/mg protein
Specific Activity, Without Enzyme System (cytochrome P450): 33.4 ± 2.0 pmol/min/mg protein
Specific Activity [6]: 270 ± 18 pmol/min/mg protein

CC(=O)OC(C#N)c1ccc2ccccc2c1 (racemic)
melting point: 37 to 38 °C

CC(=O)Oc1ccc2ccccc2c1 [Compound 2-NA, 2-naphthacetate, reference compound]
Substrate stability, UV Absorption ([1]; pH 6, tris maleate 0.1 M): <0.01 mAbs/min
Substrate stability, UV Absorption ([1]; pH 7, tris maleate 0.1 M): 0.05 mAbs/min
Substrate stability, UV Absorption ([1]; pH 8, tris maleate 0.1 M): 0.44 mAbs/min
Substrate stability, UV Absorption ([1]; pH 9, tris maleate 0.1 M): 0.555 mAbs/min
OD (optical density) ([7]; tris-maleate pH 6.5, 10 μM): 0.14
ε (molar absorptivity) ([7]; tris-maleate pH 6.5, 10 μM): 3,500
OD (optical density) ([7]; tris-maleate pH 7.5, 10 μM): 0.141
ε (molar absorptivity) ([7]; tris-maleate pH 7.5, 10 μM): 3,500
OD (optical density) ([7]; tris-maleate pH 8.5, 10 μM): 0.133
ε (molar absorptivity) ([7]; tris-maleate pH 8.5, 10 μM): 3,300
Sensitivity (minimal amount of enzyme per mL giving a signal at least three times background noise) (porcine esterase [8]; UV detection): 0.002

CCOc1ccc2nc3ccc(=O)cc-3oc2c1 [Compound A, ethoxyresorufin, reference compound]
Specific Activity, With Enzyme System (cytochrome P450): 89.0 ± 4.6 pmol/min/mg protein
Specific Activity, Without Enzyme System (cytochrome P450): 52.2 ± 1.9 pmol/min/mg protein

CCCCCOc1ccc2nc3ccc(=O)cc-3oc2c1 [Compound B, pentoxyresorufin, reference compound]
Specific Activity, With Enzyme System (cytochrome P450): 62.5 ± 5.2 pmol/min/mg protein
Specific Activity, Without Enzyme System (cytochrome P450): 41.8 ± 2.2 pmol/min/mg protein

COC(C#N)c1ccc2ccccc2c1 (centres unmarked) [Compound III, Methoxynaphthalene-2-yl Acetonitrile]
melting point: 47 to 48 °C
Specific Activity, With Enzyme System (cytochrome P450): 275.8 ± 20.5 pmol/min/mg protein
Specific Activity, Without Enzyme System (cytochrome P450): 45.9 ± 3.0 pmol/min/mg protein

CCOC(C#N)c1ccc2ccccc2c1 (centres unmarked) [Compound IV, Ethoxynaphthalene-2-yl Acetonitrile]
melting point: 53 to 54 °C
Specific Activity, With Enzyme System (cytochrome P450): 292.6 ± 16.2 pmol/min/mg protein
Specific Activity, Without Enzyme System (cytochrome P450): 40.0 ± 1.2 pmol/min/mg protein

CC(=O)Oc1ccc2c(C)cc(=O)oc2c1 [MUA, methylumbelyl acetate, reference compound]
Sensitivity (minimal amount of enzyme per mL giving a signal at least three times background noise) (porcine esterase [8]; Fluorescence detection): 0.0005
Emmax (maximal emission wavelength) ([9]; tris-maleate pH 6.5, 10 μM): 366 nm
Ex (optimal excitation wavelength) ([9]; tris-maleate pH 6.5, 10 μM): 330 nm
RFU (relative fluorescence units multiplied by 1,000) ([9]; tris-maleate pH 6.5, 10 μM): 2,672 RFU
Emmax (maximal emission wavelength) ([9]; tris-maleate pH 7.5, 10 μM): 366 nm
Ex (optimal excitation wavelength) ([9]; tris-maleate pH 7.5, 10 μM): 330 nm
RFU (relative fluorescence units multiplied by 1,000) ([9]; tris-maleate pH 7.5, 10 μM): 1,350 RFU
Emmax (maximal emission wavelength) ([9]; tris-maleate pH 8.5, 10 μM): 366 nm
Ex (optimal excitation wavelength) ([9]; tris-maleate pH 8.5, 10 μM): 330 nm
RFU (relative fluorescence units multiplied by 1,000) ([9]; tris-maleate pH 8.5, 10 μM): 1,600 RFU

COc1ccc2cc(C=O)ccc2c1 [aldehyde, 6-methoxy-2-naphthaldehyde]
OD (optical density) ([7]; tris-maleate pH 6.5, 10 μM): 0.473
λmax ([7]; tris-maleate pH 6.5, 10 μM): 314 nm
ε (molar absorptivity) ([7]; tris-maleate pH 6.5, 10 μM): 11,870
OD (optical density) ([7]; tris-maleate pH 7.5, 10 μM): 0.468
λmax ([7]; tris-maleate pH 7.5, 10 μM): 313 nm
ε (molar absorptivity) ([7]; tris-maleate pH 7.5, 10 μM): 11,700
OD (optical density) ([7]; tris-maleate pH 8.5, 10 μM): 0.465
λmax ([7]; tris-maleate pH 8.5, 10 μM): 314 nm
ε (molar absorptivity) ([7]; tris-maleate pH 8.5, 10 μM): 11,630
emission peak ([9]; over the three pH levels tested (6.5, 7.5, 8.5)): 460 nm
Emmax (maximal emission wavelength) ([9]; tris-maleate pH 6.5, 10 μM): 450 nm
Ex (optimal excitation wavelength) ([9]; tris-maleate pH 6.5, 10 μM): 360 nm
RFU (relative fluorescence units multiplied by 1,000) ([9]; tris-maleate pH 6.5, 10 μM): 17,783 RFU
Emmax (maximal emission wavelength) ([9]; tris-maleate pH 7.5, 10 μM): 485 nm
Ex (optimal excitation wavelength) ([9]; tris-maleate pH 7.5, 10 μM): 360 nm
RFU (relative fluorescence units multiplied by 1,000) ([9]; tris-maleate pH 7.5, 10 μM): 19,250 RFU
Emmax (maximal emission wavelength) ([9]; tris-maleate pH 8.5, 10 μM): 510 nm
Ex (optimal excitation wavelength) ([9]; tris-maleate pH 8.5, 10 μM): 360 nm
RFU (relative fluorescence units multiplied by 1,000) ([9]; tris-maleate pH 8.5, 10 μM): 19,256 RFU

hydroxycoumarin [HO-coumarin]
Emmax (maximal emission wavelength) ([9]; tris-maleate pH 6.5, 10 μM): 460 nm
Ex (optimal excitation wavelength) ([9]; tris-maleate pH 6.5, 10 μM): 330 nm
RFU (relative fluorescence units multiplied by 1,000) ([9]; tris-maleate pH 6.5, 10 μM): 18,830 RFU
Emmax (maximal emission wavelength) ([9]; tris-maleate pH 7.5, 10 μM): 460 nm
Ex (optimal excitation wavelength) ([9]; tris-maleate pH 7.5, 10 μM): 330 nm
RFU (relative fluorescence units multiplied by 1,000) ([9]; tris-maleate pH 7.5, 10 μM): 19,025 RFU
Emmax (maximal emission wavelength) ([9]; tris-maleate pH 8.5, 10 μM): 460 nm
Ex (optimal excitation wavelength) ([9]; tris-maleate pH 8.5, 10 μM): 330 nm
RFU (relative fluorescence units multiplied by 1,000) ([9]; tris-maleate pH 8.5, 10 μM): 19,195 RFU
